Assay results from article PMC8002477, “Bioactive Indole Diketopiperazine Alkaloids from the Marine Endophytic Fungus Aspergillus sp. YJ191021” (Marine Drugs, 2021).
Converted amounts (≈) assume the structure as drawn.

Tested on: Propionibacterium acnes (ATCC6919)
Assay: Antimicrobial assay against P. acnes (to exclude false anti-inflammatory activity)
Conditions: Cutibacterium acnes, ATCC6919, read-out: P. acnes MIC

Compound | MIC [µM]
CC1=C(/C=C/C(C)=C/C=C/C(C)=C/C(=O)O)C(C)(C)CCC1 [Tretinoin, reference compound] | > 50
CC1(C)C=Cc2c(ccc3c2N(O)C(=O)C32C(O)C34NC(=O)C5(CCCN5C3=O)CC4C2(C)C)O1 (stereo not shown) [Compound 10, notoamide H] | > 50
CC1(C)C=Cc2c(ccc3c2NC24N5C(=O)C6(O)CCCN6C(=O)C5CC32OC(CO)C4(C)C)O1 (stereo not shown) [Compound 6, Asperthrin F] | > 50
CC1(C)C=Cc2c(ccc3c2NC(=O)[C@@]32[C@H](O)[C@@]34NC(=O)[C@]5(CCCN5C3=O)C[C@H]4C2(C)C)O1 [Compound 9, sclerotiamide] | > 50
CC(=O)OC1C23NC(=O)C4(CCCN4C2=O)CC3C(C)(C)C12C(=O)Nc1c2ccc2c1C=CC(C)(C)O2 (stereo not shown) [Compound 5, Asperthrin E] | > 40
CC1(C)C=Cc2c(ccc3c4c([nH]c23)C(C)(C)[C@@H]2C[C@]35CCCN3C(=O)[C@]2(NC5=O)[C@H]4O)O1 [Compound 12, notoamide R] | > 50
CC1(C)C=Cc2c(ccc3c2[N+]([O-])=C2C3=CC34NC(=O)C5(CCCN5C3=O)CC4C2(C)C)O1 (stereo not shown) [Compound 1, Asperthrin A] | > 5

Tested on: Xanthomonas oryzae pv. oryzae
Assay: microbe, parasite or virus in culture
Format: cell-based
Conditions: 24 h, read-out: MIC, Xe (Xanthomonas oryzae pv. oryzae)

Compound | MIC [µg/mL]
CC1(C)C=Cc2c(ccc3c2N(O)C(=O)C32C(O)C34NC(=O)C5(CCCN5C3=O)CC4C2(C)C)O1 (stereo not shown) [Compound 10, notoamide H] | > 100
CC1(C)C=Cc2c(ccc3c2NC(=O)[C@@]32[C@H](O)[C@@]34NC(=O)[C@]5(CCCN5C3=O)C[C@H]4C2(C)C)O1 [Compound 9, sclerotiamide] | > 100
CC(=O)OC1C23NC(=O)C4(CCCN4C2=O)CC3C(C)(C)C12C(=O)Nc1c2ccc2c1C=CC(C)(C)O2 (stereo not shown) [Compound 5, Asperthrin E] | > 100
O=C(N[C@H](CO)[C@H](O)c1ccc([N+](=O)[O-])cc1)C(Cl)Cl [Chloromycetin, reference compound] | 12.5 (≈ 38.7 µM)
CC1(C)C=Cc2c(ccc3c2[N+]([O-])=C2C3=CC34NC(=O)C5(CCCN5C3=O)CC4C2(C)C)O1 (stereo not shown) [Compound 1, Asperthrin A] | 50 (≈ 112 µM)

Tested on: Aeromonas hydrophilia
Assay: microbe, parasite or virus in culture
Format: cell-based
Conditions: read-out: MIC, Ah (Aeromonas hydrophilia)

Compound | MIC [µg/mL]
O=C(N[C@H](CO)[C@H](O)c1ccc([N+](=O)[O-])cc1)C(Cl)Cl [Chloromycetin, reference compound] | 2 (≈ 6.19 µM)
CC1(C)C=Cc2c(ccc3c2[N+]([O-])=C2C3=CC34NC(=O)C5(CCCN5C3=O)CC4C2(C)C)O1 (stereo not shown) [Compound 1, Asperthrin A] | 32 (≈ 71.8 µM)

Tested on: Vibrio parahaemolyticus
Assay: microbe, parasite or virus in culture
Format: cell-based
Conditions: read-out: MIC, Vp (Vibrio parahaemolyticus)

Compound | MIC [µg/mL]
O=C(N[C@H](CO)[C@H](O)c1ccc([N+](=O)[O-])cc1)C(Cl)Cl [Chloromycetin, reference compound] | 2 (≈ 6.19 µM)
CC1(C)C=Cc2c(ccc3c2[N+]([O-])=C2C3=CC34NC(=O)C5(CCCN5C3=O)CC4C2(C)C)O1 (stereo not shown) [Compound 1, Asperthrin A] | 16 (≈ 35.9 µM)

Tested on: THP-1 cells
Assay: not given
Conditions: human, 36 h

Compound | THP-1 Cells SC (safe concentration) [µM]
CC1=C(/C=C/C(C)=C/C=C/C(C)=C/C(=O)O)C(C)(C)CCC1 [Tretinoin, reference compound] | 0 to 50

Tested on: Rhizoctonia solani
Assay: Antimicrobial MIC assay, Rhizoctonia solani
Format: cell-based
Conditions: 28 °C, 3-4 days, read-out: MIC, Rs (Rhizoctonia solani)

Compound | MIC [µg/mL]
CC1(C)C=Cc2c(ccc3c2N(O)C(=O)C32C(O)C34NC(=O)C5(CCCN5C3=O)CC4C2(C)C)O1 (stereo not shown) [Compound 10, notoamide H] | 25 (≈ 52.1 µM)
CC1(C)C=Cc2c(ccc3c2NC(=O)[C@@]32[C@H](O)[C@@]34NC(=O)[C@]5(CCCN5C3=O)C[C@H]4C2(C)C)O1 [Compound 9, sclerotiamide] | 25 (≈ 53.9 µM)

Same assay, conditions: agricultural pathogenic fungus, 28 °C, 3-4 days, read-out: MIC, Rs (Rhizoctonia solani)

Compound | MIC [µg/mL]
CC(=O)N1CCN(c2ccc(OCC3COC(Cn4ccnc4)(c4ccc(Cl)cc4Cl)O3)cc2)CC1 (stereo not shown) [Ketoconazole, ketoconazole, reference compound] | 0.78 (≈ 1.47 µM)
CC(=O)OC1C23NC(=O)C4(CCCN4C2=O)CC3C(C)(C)C12C(=O)Nc1c2ccc2c1C=CC(C)(C)O2 (stereo not shown) [Compound 5, Asperthrin E] | 25 (≈ 49.4 µM)

Tested on: Colletotrichum gloeosporioides
Assay: Antimicrobial MIC assay, Colletotrichum gloeosporioides
Format: cell-based
Conditions: 28 °C, 3-4 days, read-out: MIC, Cg (Colletotrichum gloeosporioides)

Compound | MIC [µg/mL]
CC1(C)C=Cc2c(ccc3c2N(O)C(=O)C32C(O)C34NC(=O)C5(CCCN5C3=O)CC4C2(C)C)O1 (stereo not shown) [Compound 10, notoamide H] | > 100
CC1(C)C=Cc2c(ccc3c2NC(=O)[C@@]32[C@H](O)[C@@]34NC(=O)[C@]5(CCCN5C3=O)C[C@H]4C2(C)C)O1 [Compound 9, sclerotiamide] | > 100
CC1(C)C=Cc2c(ccc3c2[N+]([O-])=C2C3=CC34NC(=O)C5(CCCN5C3=O)CC4C2(C)C)O1 (stereo not shown) [Compound 1, Asperthrin A] | > 100

Same assay, conditions: agricultural pathogenic fungus, 28 °C, 3-4 days, read-out: MIC, Cg (Colletotrichum gloeosporioides)

Compound | MIC [µg/mL]
CC(=O)N1CCN(c2ccc(OCC3COC(Cn4ccnc4)(c4ccc(Cl)cc4Cl)O3)cc2)CC1 (stereo not shown) [Ketoconazole, ketoconazole, reference compound] | 12.5 (≈ 23.5 µM)
CC(=O)OC1C23NC(=O)C4(CCCN4C2=O)CC3C(C)(C)C12C(=O)Nc1c2ccc2c1C=CC(C)(C)O2 (stereo not shown) [Compound 5, Asperthrin E] | > 100

Tested on: Fusarium oxysporum
Assay: Antimicrobial MIC assay, Fusarium oxysporum
Format: cell-based
Conditions: 28 °C, 3-4 days, read-out: MIC, Fo (Fusarium oxysporum)

Compound | MIC [µg/mL]
CC1(C)C=Cc2c(ccc3c2N(O)C(=O)C32C(O)C34NC(=O)C5(CCCN5C3=O)CC4C2(C)C)O1 (stereo not shown) [Compound 10, notoamide H] | > 100
CC1(C)C=Cc2c(ccc3c2NC(=O)[C@@]32[C@H](O)[C@@]34NC(=O)[C@]5(CCCN5C3=O)C[C@H]4C2(C)C)O1 [Compound 9, sclerotiamide] | > 100
CC1(C)C=Cc2c(ccc3c2[N+]([O-])=C2C3=CC34NC(=O)C5(CCCN5C3=O)CC4C2(C)C)O1 (stereo not shown) [Compound 1, Asperthrin A] | > 100

Same assay, conditions: agricultural pathogenic fungus, 28 °C, 3-4 days, read-out: MIC, Fo (Fusarium oxysporum)

Compound | MIC [µg/mL]
CC(=O)N1CCN(c2ccc(OCC3COC(Cn4ccnc4)(c4ccc(Cl)cc4Cl)O3)cc2)CC1 (stereo not shown) [Ketoconazole, ketoconazole, reference compound] | 100 (≈ 188 µM)
CC(=O)OC1C23NC(=O)C4(CCCN4C2=O)CC3C(C)(C)C12C(=O)Nc1c2ccc2c1C=CC(C)(C)O2 (stereo not shown) [Compound 5, Asperthrin E] | > 100

Tested on: Vibrio anguillarum
Assay: microbe, parasite or virus in culture
Format: cell-based
Conditions: read-out: MIC, Va (Vibrio anguillarum)

Compound | MIC [µg/mL]
O=C(N[C@H](CO)[C@H](O)c1ccc([N+](=O)[O-])cc1)C(Cl)Cl [Chloromycetin, reference compound] | 0.5 (≈ 1.55 µM)
CC1(C)C=Cc2c(ccc3c2[N+]([O-])=C2C3=CC34NC(=O)C5(CCCN5C3=O)CC4C2(C)C)O1 (stereo not shown) [Compound 1, Asperthrin A] | 8 (≈ 18 µM)

Tested on: Xanthomonas oryzae pv. oryzicola
Assay: microbe, parasite or virus in culture
Format: cell-based
Conditions: 24 h, read-out: MIC, Xa (Xanthomonas oryzae pv. oryzicola)

Compound | MIC [µg/mL]
CC1(C)C=Cc2c(ccc3c2N(O)C(=O)C32C(O)C34NC(=O)C5(CCCN5C3=O)CC4C2(C)C)O1 (stereo not shown) [Compound 10, notoamide H] | > 100
CC1(C)C=Cc2c(ccc3c2NC(=O)[C@@]32[C@H](O)[C@@]34NC(=O)[C@]5(CCCN5C3=O)C[C@H]4C2(C)C)O1 [Compound 9, sclerotiamide] | > 100
CC(=O)OC1C23NC(=O)C4(CCCN4C2=O)CC3C(C)(C)C12C(=O)Nc1c2ccc2c1C=CC(C)(C)O2 (stereo not shown) [Compound 5, Asperthrin E] | > 100
O=C(N[C@H](CO)[C@H](O)c1ccc([N+](=O)[O-])cc1)C(Cl)Cl [Chloromycetin, reference compound] | 12.5 (≈ 38.7 µM)
CC1(C)C=Cc2c(ccc3c2[N+]([O-])=C2C3=CC34NC(=O)C5(CCCN5C3=O)CC4C2(C)C)O1 (stereo not shown) [Compound 1, Asperthrin A] | 12.5 (≈ 28.1 µM)

Tested on: Edwardsiella tarda
Assay: microbe, parasite or virus in culture
Format: cell-based
Conditions: read-out: MIC, Et (Edwardsiella tarda)

Compound | MIC [µg/mL]
O=C(N[C@H](CO)[C@H](O)c1ccc([N+](=O)[O-])cc1)C(Cl)Cl [Chloromycetin, reference compound] | 2 (≈ 6.19 µM)
CC1(C)C=Cc2c(ccc3c2[N+]([O-])=C2C3=CC34NC(=O)C5(CCCN5C3=O)CC4C2(C)C)O1 (stereo not shown) [Compound 1, Asperthrin A] | 16 (≈ 35.9 µM)

Tested on: THP-1 cells
Assay: MTT viability of THP-1 cells (safe concentration)
Conditions: concentration range of THP-1 cells viability over 80%, 36 h

Compound | THP-1 Cells SC (safe concentration) [µM]
CC1(C)C=Cc2c(ccc3c2N(O)C(=O)C32C(O)C34NC(=O)C5(CCCN5C3=O)CC4C2(C)C)O1 (stereo not shown) [Compound 10, notoamide H] | 0 to 50
CC1(C)C=Cc2c(ccc3c2NC24N5C(=O)C6(O)CCCN6C(=O)C5CC32OC(CO)C4(C)C)O1 (stereo not shown) [Compound 6, Asperthrin F] | 0 to 50
CC1(C)C=Cc2c(ccc3c2NC(=O)[C@@]32[C@H](O)[C@@]34NC(=O)[C@]5(CCCN5C3=O)C[C@H]4C2(C)C)O1 [Compound 9, sclerotiamide] | 0 to 50
CC(=O)OC1C23NC(=O)C4(CCCN4C2=O)CC3C(C)(C)C12C(=O)Nc1c2ccc2c1C=CC(C)(C)O2 (stereo not shown) [Compound 5, Asperthrin E] | 0 to 40
CC1(C)C=Cc2c(ccc3c4c([nH]c23)C(C)(C)[C@@H]2C[C@]35CCCN3C(=O)[C@]2(NC5=O)[C@H]4O)O1 [Compound 12, notoamide R] | 0 to 50
CC1(C)C=Cc2c(ccc3c2[N+]([O-])=C2C3=CC34NC(=O)C5(CCCN5C3=O)CC4C2(C)C)O1 (stereo not shown) [Compound 1, Asperthrin A] | 0 to 5
